In ChEMBL document CHEMBL1221176, “Actin microfilament aggregation induced by withaferin A is mediated by annexin II” (Nat Chem Biol, 2006):
Each block holds one molecule with its values, some of them ahead of it. Active and inactive are the calls of the source. The rule behind the calls is not given here.

Legend:
Annexin A5 (Bos taurus) = target: T1, Annexin A5 (Bos taurus) (UniProt P81287); assay: Displacement of biotinyl-withaferin from bovine lung annexin 5 at 10 uM by chemiluminescence assay
T1 sequence (whole entry): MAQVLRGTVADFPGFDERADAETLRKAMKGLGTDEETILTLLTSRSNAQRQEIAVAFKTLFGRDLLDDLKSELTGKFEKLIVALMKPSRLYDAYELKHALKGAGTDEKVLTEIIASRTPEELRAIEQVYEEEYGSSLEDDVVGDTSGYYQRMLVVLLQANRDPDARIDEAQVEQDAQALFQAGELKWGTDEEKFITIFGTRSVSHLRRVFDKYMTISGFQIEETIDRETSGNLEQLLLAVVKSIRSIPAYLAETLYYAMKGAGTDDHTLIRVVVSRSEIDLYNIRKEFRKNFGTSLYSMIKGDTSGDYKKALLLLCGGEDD

[1] = target: Annexin A2 (Homo sapiens) (UniProt P07355); assay: Induction of annexin-2-mediated cytotoxicity in human MCF10A cells assessed as cell morphology at 4 uM after 2 hrs by scanning electron microscopy; conditions: MCF-10A
Target sequence in this assay (P07355 whole entry, looked up): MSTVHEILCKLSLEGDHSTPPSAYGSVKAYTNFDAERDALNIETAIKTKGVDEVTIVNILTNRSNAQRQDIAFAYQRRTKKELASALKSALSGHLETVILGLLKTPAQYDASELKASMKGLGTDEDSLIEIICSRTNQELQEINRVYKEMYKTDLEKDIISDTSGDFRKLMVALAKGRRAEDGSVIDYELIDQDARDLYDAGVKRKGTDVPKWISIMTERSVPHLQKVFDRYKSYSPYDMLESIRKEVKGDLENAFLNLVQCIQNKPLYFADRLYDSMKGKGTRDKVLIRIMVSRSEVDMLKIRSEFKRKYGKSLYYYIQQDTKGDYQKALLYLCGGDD

WI-38 [2] = assay: Cytotoxicity against human WI38 cells assessed as cell viability pretreated after 16 hrs by MTT assay in presence of 0.5 uM cytochalasin B; assay type: functional, cell-based
CHP100 = assay: Cytotoxicity against human CHP100 cells assessed as viable cell after 24 hrs by MTT assay; assay type: functional, cell-based
[3] = target: Annexin A2 (Homo sapiens) (UniProt P07355); assay: Displacement of biotinyl-withaferin from annexin-2 in human MCF10A at 0.4 to 4 uM by chemiluminescence assay
Target sequence in this assay (P07355 whole entry): as the sequence (P07355 whole entry, looked up) above

[4] = target: Annexin A2 (Homo sapiens) (UniProt P07355); assay: Displacement of biotinyl-withaferin from annexin-2 in human CHP100 at 0.4 to 4 uM by chemiluminescence assay
Target sequence in this assay (P07355 whole entry): as the sequence (P07355 whole entry, looked up) above

PC-3M = assay: Cytotoxicity against human PC3M cells assessed as viable cell after 24 hrs by MTT assay; assay type: functional, cell-based
Annexin A1 (Bos taurus) = target: T2, Annexin A1 (Bos taurus) (UniProt P46193); assay: Displacement of biotinyl-withaferin from bovine lung annexin 1 at 10 uM by chemiluminescence assay
T2 sequence (whole entry): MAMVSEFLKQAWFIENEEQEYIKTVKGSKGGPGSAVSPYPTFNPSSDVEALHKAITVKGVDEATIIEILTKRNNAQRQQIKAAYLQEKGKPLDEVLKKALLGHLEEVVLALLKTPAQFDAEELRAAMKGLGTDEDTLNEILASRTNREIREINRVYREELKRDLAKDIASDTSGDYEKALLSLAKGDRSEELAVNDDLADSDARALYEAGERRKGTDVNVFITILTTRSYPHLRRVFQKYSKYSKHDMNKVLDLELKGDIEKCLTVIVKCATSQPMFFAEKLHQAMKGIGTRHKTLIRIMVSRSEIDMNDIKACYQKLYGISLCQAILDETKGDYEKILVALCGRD

HepG2 [5] = assay: Cytotoxicity against human HepG2 cells harboring annexin 2 after 48 hrs by MTT assay; assay type: functional, cell-based
[6] = target: Annexin A2 (Homo sapiens) (UniProt P07355); assay: Inhibition of annexin 2-mediated liposome aggregation after 15 mins by spectrophotometry
Target sequence in this assay (P07355 whole entry): as the sequence (P07355 whole entry, looked up) above

[7] = target: Annexin A2 (Homo sapiens) (UniProt P07355); assay: Effect on human annexin 2-mediated F-actin bundling assessed as increase in light scattering after 1 hr by SDS-PAGE
Target sequence in this assay (P07355 whole entry): as the sequence (P07355 whole entry, looked up) above

Annexin A2 (Bos taurus) [8] = target: Annexin A2 (Bos taurus) (UniProt P04272); assay: Displacement of biotinyl-withaferin from bovine lung annexin-2 at 4 uM by chemiluminescence assay
Sequence of Annexin A2 (Bos taurus) (P04272 whole entry): as the sequence (P07355 whole entry, looked up) above, with A66E, I160V, P223C, D230E, R245K, R309K counted along it

Annexin A6 (Bos taurus) = target: T3, Annexin A6 (Bos taurus) (UniProt P79134); assay: Displacement of biotinyl-withaferin from bovine lung annexin 6 at 10 uM by chemiluminescence assay
T3 sequence (whole entry): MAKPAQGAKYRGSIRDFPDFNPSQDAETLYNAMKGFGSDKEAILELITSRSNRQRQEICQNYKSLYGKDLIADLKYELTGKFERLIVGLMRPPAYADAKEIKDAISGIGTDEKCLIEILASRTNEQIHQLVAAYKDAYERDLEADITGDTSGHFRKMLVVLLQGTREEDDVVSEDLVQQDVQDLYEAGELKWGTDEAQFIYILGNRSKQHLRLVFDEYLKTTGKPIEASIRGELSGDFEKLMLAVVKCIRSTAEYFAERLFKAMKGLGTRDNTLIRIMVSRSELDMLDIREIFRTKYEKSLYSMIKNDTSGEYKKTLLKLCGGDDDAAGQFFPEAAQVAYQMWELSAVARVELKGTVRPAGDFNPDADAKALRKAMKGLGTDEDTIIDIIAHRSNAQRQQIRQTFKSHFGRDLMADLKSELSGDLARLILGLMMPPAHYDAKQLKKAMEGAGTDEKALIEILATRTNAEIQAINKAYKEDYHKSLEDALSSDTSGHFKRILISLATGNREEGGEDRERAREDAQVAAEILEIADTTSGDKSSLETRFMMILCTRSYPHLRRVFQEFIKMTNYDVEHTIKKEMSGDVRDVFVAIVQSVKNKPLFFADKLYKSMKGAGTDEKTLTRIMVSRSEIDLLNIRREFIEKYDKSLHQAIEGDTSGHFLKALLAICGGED

Annexin A2 (Bos taurus) [9] = target: Annexin A2 (Bos taurus) (UniProt P04272); assay: Displacement of biotinyl-withaferin from bovine lung annexin-2 at 0.4 uM by chemiluminescence assay
[10] = target: Annexin A2 (Homo sapiens) (UniProt P07355); assay: Binding affinity to annexin 2 assessed as inhibition of protein-lipid interaction after 15 mins by coomassine blue staining
Target sequence in this assay (P07355 whole entry): as the sequence (P07355 whole entry, looked up) above

Homo sapiens [11] = organism: Homo sapiens; assay: Effect on human F-actin bundling assessed as light scattering after 1 hr by SDS-PAGE
[12] = target: Annexin A2 (Homo sapiens) (UniProt P07355); assay: Induction of annexin 2-mediated F-actin disruption in human WI38 cells at 4 uM after 2 hrs by confocal laser scanning microscopy; assay type: cell-based; conditions: WI-38
Target sequence in this assay (P07355 whole entry): as the sequence (P07355 whole entry, looked up) above

[13] = target: Annexin A2 (Homo sapiens) (UniProt P07355); assay: Induction of annexin 2-mediated cytoskeleton aggregate accumulation in human HepG2 cells at 4 uM after 2 hrs by confocal laser scanning microscopy; assay type: cell-based
Annexin A4 (Bos taurus) = target: T4, Annexin A4 (Bos taurus) (UniProt P13214); assay: Displacement of biotinyl-withaferin from bovine lung annexin 4 at 10 uM by chemiluminescence assay
T4 sequence (whole entry): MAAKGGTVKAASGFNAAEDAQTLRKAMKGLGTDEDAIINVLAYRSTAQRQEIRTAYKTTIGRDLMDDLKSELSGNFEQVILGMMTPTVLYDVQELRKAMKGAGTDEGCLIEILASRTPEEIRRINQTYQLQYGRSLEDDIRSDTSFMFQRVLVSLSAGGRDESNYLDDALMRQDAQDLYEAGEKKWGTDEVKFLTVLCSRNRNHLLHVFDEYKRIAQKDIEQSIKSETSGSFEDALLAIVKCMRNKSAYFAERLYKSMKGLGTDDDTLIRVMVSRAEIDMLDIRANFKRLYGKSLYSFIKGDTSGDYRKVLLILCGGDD

[14] = target: Annexin A2 (Homo sapiens) (UniProt P07355); assay: Induction of annexin 2-mediated F-actin disruption in human HepG2 cells at 4 uM after 2 hrs by confocal laser scanning microscopy; assay type: cell-based
Homo sapiens [15] = organism: Homo sapiens; assay: Effect on human F-actin pellet formation after 1 hr by SDS-PAGE
HepG2 [16] = assay: Cytotoxicity against human HepG2 cells harboring annexin 2 assessed as rapid shape change and rounding up at 4 uM after 2 hrs; assay type: functional, cell-based
Annexin A2 (Bos taurus) [17] = target: Annexin A2 (Bos taurus) (UniProt P04272); assay: Displacement of biotinyl-withaferin from bovine lung annexin 2 at 10 uM by chemiluminescence assay
Annexin A2 (Bos taurus) [18] = target: Annexin A2 (Bos taurus) (UniProt P04272); assay: Displacement of biotinyl-withaferin from bovine lung annexin-2 at 40 uM by chemiluminescence assay
WI-38 [19] = assay: Cytotoxicity against human WI38 cells assessed as cell viability pretreated after 16 hrs by MTT assay in presence of 1 uM cytochalasin B; assay type: functional, cell-based
[20] = target: Annexin A2 (Homo sapiens) (UniProt P07355); assay: Induction of annexin-2-mediated cytotoxicity in human CHP100 cells at 4 uM after 2 hrs by MTT assay; assay type: cell-based

- Activity (Annexin A5 (Bos taurus)): inactive
- Activity [3]: Active
- Activity [4]: Active
- Activity (Annexin A1 (Bos taurus)): inactive
- inhibition [6]: inactive
- Activity [7]: Active
- Activity (Annexin A2 (Bos taurus) [8]): Active
- Activity (Annexin A6 (Bos taurus)): inactive
- Activity (Annexin A2 (Bos taurus) [9]): Active
- Activity [10]: inactive
- Activity (Homo sapiens [11]): inactive
- Activity [12]: Active
- Activity [13]: Active
- Activity (Annexin A4 (Bos taurus)): inactive
- Activity [14]: Active
- Activity (Homo sapiens [15]): inactive
- Activity (Annexin A2 (Bos taurus) [17]): Active
- Activity (Annexin A2 (Bos taurus) [18]): Active
Compound: CC1=C(CO)C(=O)O[C@@H]([C@@H](C)[C@H]2CC[C@H]3[C@@H]4C[C@H]5O[C@]56[C@@H](O)C=CC(=O)[C@]6(C)[C@H]4CC[C@]23C)C1
- Activity [1]: inactive
- Activity (WI-38 [2]): inactive
- Activity (CHP100): Active
- Activity (PC-3M): Active
- Activity (HepG2 [5]): Toxic
- Activity (HepG2 [16]): Active
- Activity (WI-38 [19]): inactive

Compound: CC1=C(C)C(=O)O[C@H]([C@](C)(O)[C@H]2CC[C@H]3[C@@H]4C[C@H]5O[C@]56[C@@H](O)C=CC(=O)[C@]6(C)[C@H]4CC[C@]23C)C1
- Activity [20]: inactive
- Activity [1]: inactive
- Activity (Annexin A2 (Bos taurus) [18]): inactive

- inhibition [6]: Active
- Activity [10]: Active
Compound: CCN1C(=O)C=CC1=O
